Source: US20060074109A1, “Use of inhibitors of 24-hydroxylase in the treatment of cancer” (Sapphire Therapeutics, Inc., priority 2004, published 2006)

Assays:
[1] = molecular target: T1, 1αOHase in OVCAR-3 cells (Homo sapiens, UniProt O15528); assay: Metabolic analysis of 25(OH)D3: 1,25(OH)2D3 production; format: cell-based
T1 construct: showing the expression of 1αOHase in OVCAR-3 cells; endogenous in cells; host or cells: OVCAR-3
T1 sequence (O15528 1-508): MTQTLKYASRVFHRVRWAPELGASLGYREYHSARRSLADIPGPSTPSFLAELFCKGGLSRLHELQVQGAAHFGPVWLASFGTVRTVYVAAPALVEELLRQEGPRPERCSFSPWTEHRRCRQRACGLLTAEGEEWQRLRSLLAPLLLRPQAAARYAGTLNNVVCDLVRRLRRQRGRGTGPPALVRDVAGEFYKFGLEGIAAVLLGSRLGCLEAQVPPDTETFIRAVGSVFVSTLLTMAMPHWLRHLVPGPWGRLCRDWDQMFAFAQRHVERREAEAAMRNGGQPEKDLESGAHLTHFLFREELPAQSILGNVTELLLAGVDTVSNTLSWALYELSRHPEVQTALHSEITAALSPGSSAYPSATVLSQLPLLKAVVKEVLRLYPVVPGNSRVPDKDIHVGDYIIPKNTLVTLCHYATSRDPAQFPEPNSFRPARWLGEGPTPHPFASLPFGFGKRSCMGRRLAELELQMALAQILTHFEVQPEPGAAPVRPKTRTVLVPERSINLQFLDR
Experimental: OVCAR-3 cells (1.5×10^6 cell/flask) were plated on T25 culture flasks. One day after plating, cells were treated with 500 nM 25(OH)D3 in RPMI 1640 medium supplemented with 10% FBS, 10 μg/ml insulin, 0.25% glucose and antibiotics (100 IU/ml penicillin, 100 μg/ml streptomycin). After 0, 3 or 24 hr, the medium was collected and the cell monolayer was extracted with 1 ml methanol. After 15 min incubation at room temperature, the methanol was transformed into the same tube than the sample medium. The samples for the measurement of the 25(OH)D3 metabolites were purified using the acetonitrile-C 18 Sep-Pak (Waters Corporation, Milford, Mass.) procedure (Turnbull, H., Trafford, D. J., Makin, H. L., “A Rapid and Simple Method for the Measurement of Plasma 25-hydroxyvitamin D2 and 25-hydroxyvitamin D3 Using Sep-Pak C 18 Cartridges and a Single High-Performance Liquid Chromatographic Step,” Clin. Chim. Acta., 120:65-76 (1982)) followed by separation of the metabolites by a high-performance liquid chromatography. […] The second measurement was done following the same procedure except dextran charcoal-treated FBS was used instead of FBS, 24OHase inhibitor (200 nM VID400) was used with the 500 nM 25(OH)D3 treatment, and the samples were collected only after 0 and 24 hr.

[2] = test system: OVCAR-3 cells; assay: Cell growth assay, crystal violet, 11 days; format: cell-based, human; conditions: for effect on growth inhibition: Experiment V
Experimental: The human ovarian adenocarcinoma cell line, OVCAR-3 (ATCC, Manassas, Va.) was maintained, as recommended by the supplier, in RPMI 1640 medium (Sigma Aldrich, St. Louis, Mo.) supplemented with 10% FBS, 10 μg/ml insulin, 0.25% glucose and antibiotics (100 IU/ml penicillin, 100 μg/ml streptomycin). Human ovarian adenocarcinoma cell lines UT-OC-1, UT-OC-2, UT-OC-3, UT-OC-4, UT-OC-5 (Grenman, S., Engblom, P., Rantanen, V., Klemi, P. and Isola, J., “Cytogenetic Characterization of Five New Ovarian Carcinoma Cell Lines,” Acta Obstet. Gynecol. Scand., 76:83 (1997)) and SK-OV-3 and a human keratinocyte cell line HaCaT were grown in DMEM (Sigma Aldrich) with 10% FBS and antibiotics (100 IU/ml penicillin, 100 μg/ml streptomycin), and monkey kidney COS cells were maintained in DMEM/F12 (Sigma Aldrich) with 5% FBS. All cell lines were kept at 37° C. in a humidified 95% air/5% CO2 incubator.
When OVCAR-3 cells were on the logarithmic growth phase (70% confluent) the growth assay was started. For cell growth assay, 2,000 cell/200 μl/well were plated on 96-well culture plates. […] Ethanol was used as a vehicle, and it was also included in the control. The medium containing ethanol vehicle and/or hormones were changed to a fresh one every third day. Cell growth samples were taken 0, 1, 3, 5, 7, 9 and 11 days after the treatment.
Relative cell numbers were quantified as described previously (Kueng W, Silber E, Eppenberger U. Quantification of cells cultured on 96-well plates. Anal. Biochem., 182:16-9 (1989)). Cells were fixed on the bottom of the wells by addition of 10 μl of 11% glutaraldehyde solution in 0.1% phosphate buffer to 100 μl of medium. The plate was shaken 500 cycles/min for 15 min, washed 3 times by submersion in de-ionised water and air-dried. Fixed cells were stained with 0.1% solution of crystal violet dissolved in de-ionised water. After 20 min incubation, excess dye was removed by carefully washing with de-ionised water. The plate was air-dried prior to a bound dye solubilisation in 100 μl of 10% acetic acid. Relative cell number was given as absorbance units by measuring the optical density (590 nm) from each well using Victor 1420 multilabel counter (Wallac, Turku, Finland). Six determinations were used to calculate the mean optical density ±SD in each concentration at each time point. The absorbance value of day 0 (an overnight culture of 2,000 cells/well) was set as 0 by subtracting it from each value obtained from adjacent time-point measurements (days 1-11), and based on these values growth curves were created. Experiments were repeated 3-5 times. Day 11 was used to compare the effect of hormone treatments and 24OHase inhibitor. Statistical analyses were done using Student's t-test.
The cell growth response was determined as described in Experiment I. Briefly, cells were treated with indicated hormone concentrations or combinations of hormone and 24OHase inhibitor (VID400) for 11 days. The growth medium and hormones were changed to a fresh one every third day. After the treatment period, cells were fixed, stained with crystal violet, and the optical density (590 nm) was determined. The cell growth is presented as a percentage of ethanol-treated cells. The values represent the mean of 3 separate experiments ±SD. (*p<0.05, **p<0.001, ***p<0.0001, Student's t-test).
Cell growth samples were obtained after 11 days treatment.

| Compound | 1,25(OH)2D3 ([1]; 500 nM 25(OH)D3, 0 hr, experiment I (FBS)) [pM] | 1,25(OH)2D3 ([1]; 500 nM 25(OH)D3, 3 hr, experiment I (FBS)) [pM] | 1,25(OH)2D3 ([1]; 500 nM 25(OH)D3, 24 hr, experiment I (FBS)) [pM] | 1,25(OH)2D3 ([1]; 500 nM 25(OH)D3, 24 hr, experiment II (dextran charcoal-treated FBS)) [pM] | stimulated growth compared to the control ([2]; 10 nM, 11 days) [%] | stimulated growth compared to the control ([2]; 50 nM, 11 days) [%] | stimulated growth compared to the control ([2]; 100 nM alone, 11 days, Experiment IV, not statistically significant) [%] | stimulated growth compared to the control ([2]; 100 nM, 11 days, Experiment I) [%] | stimulated growth compared to the control ([2]; 200 nM, 11 days) [%] | stimulated growth compared to the control ([2]; 500 nM, 11 days) [%] | effect on production of 1,25(OH)2D3 ([1]; 200 nM VID400 + 500 nM 25(OH)D3, 24 hr, second experiment) | 1,25(OH)2D3 ([1]; 500 nM 25(OH)D3 + 200 nM VID400, 24 hr, experiment II (dextran charcoal-treated FBS)) [pM] | growth inhibition compared to the control ([2]; 200 nM VID400 alone, 11 days, Experiment IV) [%] | growth inhibition compared to the control ([2]; 200 nM VID400 combined with 1 nM 1,25(OH)2D3, 11 days) [%] | growth inhibition compared to the control ([2]; 200 nM VID400 combined with 10 nM 1,25(OH)2D3, 11 days) [%] | effect on growth inhibition ([2]; 200 nM VID 400 combined with 10 nM 1,25(OH)2D3, 11 days) | growth inhibition compared to the control ([2]; 200 nM VID400 combined with 100 nM 25(OH)D3, 11 days) [%] | effect on growth inhibition ([2]; 200 nM VID 400 combined with EB 1089, 11 days) | effect on growth inhibition ([2]; 200 nM VID 400 combined with retinoids, 11 days) |
| --- | --- | --- | --- | --- | --- | --- | --- | --- | --- | --- | --- | --- | --- | --- | --- | --- | --- | --- | --- |
| C=C1CC[C@H](O)C/C1=C/C=C1\CCC[C@]2(C)[C@@H]([C@H](C)CCCC(C)(C)O)CC[C@@H]12 [25(OH)D3, monohydroxyvitamin D3] | 23 | 37 | 33 | 28 | 32 | 41 | 18 | 39 | 35 | 11 |  |  |  |  |  |  |  |  |  |
| O=C(NC[C@@H](c1ccccc1)n1ccnc1)c1ccc(-c2ccc(Cl)cc2)cc1 [VID400, 2-(R)-4′-Chlorobiphenyl-4-carboxylic acid (2-imidazol-1-yl-2-phenyl-ethyl)-amide] |  |  |  |  |  |  |  |  |  |  | did not have an effect on production of 1,25(OH)2D3 | 27 | 8 | 27 | 77 | clearly enhanced the growth inhibition | 14 | had no additional effect on cell growth inhibition | slightly augmented the growth inhibition |
